# Data published in patent US20250281424A1 (New York Blood Center, Inc, priority 2020, published 2025).
# Molecular target: T1, human PF4 (Homo sapiens, UniProt P02776)
# T1 construct: PF4 is a 70 amino acid, lysine-rich 7.8 kDa platelet-specific protein; made in house; host or cells: Escherichia coli BL21DE3 pLysS (pT7-7) and/or Drosophila S2 cells
# T1 sequence (P02776 32-101): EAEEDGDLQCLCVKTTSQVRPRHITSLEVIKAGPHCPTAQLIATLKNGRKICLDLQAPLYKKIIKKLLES
# Test: Inhibition of PF4 tetramer formation (BS3 cross-linking, SDS-PAGE)
# Type: biochemical
# Conditions: for inhibition at 5 µM: 5 μM inhibitor; for inhibition at 5 µM / inhibition at 10 µM / inhibition at 1 µM / inhibition at 3 µM: read-out: % inhibition of PF4 tetramer formation at single concentration of inhibitor; for inhibition at 10 µM: 10 μM inhibitor (column A); for IC50: read-out: IC50 of PF4 tetramer formation inhibition
# Outline: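 Recombinant human wild-type PF4 (E. coli-expressed, heparin-purified), 10 μg/ml in PBS, incubated with compound 15 min at 37° C or 60 min at room temperature, then cross-linked with 0.2 mM BS3 for 30 min at room temperature. Reducing 12% SDS-PAGE; bands quantified as % tetramer, trimer, dimer, monomer versus compound-free control.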
inhibition at 5 µM [%],inhibition at 10 µM [%],IC50 [nM],SMILES,also measured
95,95,2600,"CC(C)(C)CC(=O)NCC(=O)C1C(=O)c2ccc(S(=O)(=O)c3ccc4c(c3)C(=O)C(C(=O)CNC(=O)CC(C)(C)C)C4=O)cc2C1=O (stereo not drawn) [Example 186, N-{2-[5-({2-[2-(3,3-dimethylbutanamido)acetyl]-1,3-dioxo-2,3-dihydro-1H-inden-5-yl}sulfonyl)-1,3-dioxo-2,3-dihydro-1H-inden-2-yl]-2-oxoethyl}-3,3-dimethylbutanamide]",–
–,–,2300,"O=C(NCCc1ccc(F)cc1)C1C(=O)c2ccc(S(=O)(=O)c3ccc4c(c3)C(=O)C(C(=O)NCCc3ccc(F)cc3)C4=O)cc2C1=O (stereo not drawn) [Example 83, N-[2-(4-fluorophenyl)ethyl]-5-[(2-{[2-(4-fluorophenyl)ethyl]carbamoyl}-1,3-dioxo-2,3-dihydro-1H-inden-5-yl)sulfonyl]-1,3-dioxo-2,3-dihydro-1H-indene-2-carboxamide]",–
70,86,3000,"O=C(Cn1cnnn1)C1C(=O)c2ccc(S(=O)(=O)c3ccc4c(c3)C(=O)C(C(=O)Cn3cnnn3)C4=O)cc2C1=O (stereo not drawn) [Example 169, 5-({1,3-dioxo-2-[2-(1H-1,2,3,4-tetrazol-1-yl)acetyl]-2,3-dihydro-1H-inden-5-yl}sulfonyl)-2-[2-(1H-1,2,3,4-tetrazol-1-yl)acetyl]-2,3-dihydro-1H-indene-1,3-dione]",–
18,36,–,"CN1CCC[C@H]1C(=O)C1C(=O)c2ccc(S(=O)(=O)c3ccc4c(c3)C(=O)C(C(=O)[C@@H]3CCCN3C)C4=O)cc2C1=O (stereo partly drawn) [Example 167, 2-[(2S)-1-methylpyrrolidine-2-carbonyl]-5-({2-[(2S)-1-methylpyrrolidine-2-carbonyl]-1,3-dioxo-2,3-dihydro-1H-inden-5-yl}sulfonyl)-2,3-dihydro-1H-indene-1,3-dione]",–
–,–,–,"CC(C)[C@@H](N)C(=O)C1C(=O)c2ccc(C(=O)c3ccc4c(c3)C(=O)C(C(=O)[C@H](N)C(C)C)C4=O)cc2C1=O (stereo partly drawn) [Example 352, 2-[(2R)-2-amino-3-methylbutanoyl]-5-{2-[(2R)-2-amino-3-methylbutanoyl]-1,3-dioxo-2,3-dihydro-1H-indene-5-carbonyl}-2,3-dihydro-1H-indene-1,3-dione]",inhibition at 1 µM (1 μM inhibitor): 35%; inhibition at 3 µM (3 μM inhibitor (column A)): 78%
75,86,18000,"CO[C@@H](C(=O)C1C(=O)c2ccc(S(=O)(=O)c3ccc4c(c3)C(=O)C(C(=O)[C@H](OC)c3ccccc3)C4=O)cc2C1=O)c1ccccc1 (stereo partly drawn) [Example 136, 2-[(2R)-2-methoxy-2-phenylacetyl]-5-({2-[(2R)-2-methoxy-2-phenylacetyl]-1,3-dioxo-2,3-dihydro-1H-inden-5-yl}sulfonyl)-2,3-dihydro-1H-indene-1,3-dione]",–
21,77,–,"COCCC(=O)C1C(=O)c2ccc(C(=O)c3ccc4c(c3)C(=O)C(C(=O)CCOC)C4=O)cc2C1=O (stereo not drawn) [Example 176, 2-(3-methoxypropanoyl)-5-[2-(3-methoxypropanoyl)-1,3-dioxo-2,3-dihydro-1H-indene-5-carbonyl]-2,3-dihydro-1H-indene-1,3-dione]",–
67,92,4000,"COC(=O)[C@@H]1C[C@H]1C(=O)C1C(=O)c2ccc(S(=O)(=O)c3ccc4c(c3)C(=O)C(C(=O)[C@@H]3C[C@H]3C(=O)OC)C4=O)cc2C1=O (stereo partly drawn) [Example 218, methyl (1R,2R)-2-[5-({2-[(1R,2R)-2-(methoxycarbonyl)cyclopropanecarbonyl]-1,3-dioxo-2,3-dihydro-1H-inden-5-yl}sulfonyl)-1,3-dioxo-2,3-dihydro-1H-indene-2-carbonyl]cyclopropane-1-carboxylate]",–
–,–,1970,"O=C(NC1CCCC1)C1C(=O)c2ccc(S(=O)(=O)c3ccc4c(c3)C(=O)C(C(=O)NC3CCCC3)C4=O)cc2C1=O (stereo not drawn) [Example 294, N-cyclopentyl-5-{[2-(cyclopentylcarbamoyl)-1,3-dioxo-2,3-dihydro-1H-inden-5-yl]sulfonyl}-1,3-dioxo-2,3-dihydro-1H-indene-2-carboxamide]",inhibition at 1 µM (1 μM inhibitor): 45%; inhibition at 3 µM (3 μM inhibitor (column A)): 88%
–,–,–,"CC(=O)NCC(=O)C1C(=O)c2ccc(Oc3ccc4c(c3)C(=O)C(C(=O)CNC(C)=O)C4=O)cc2C1=O (stereo not drawn) [Example 298, N-[2-(5-{[2-(2-acetamidoacetyl)-1,3-dioxo-2,3-dihydro-1H-inden-5-yl]oxy}-1,3-dioxo-2,3-dihydro-1H-inden-2-yl)-2-oxoethyl]acetamide]","% inhibition of PF4 tetramer formation at single concentration of inhibitor (1 μM inhibitor, 1 µM): 32%; % inhibition of PF4 tetramer formation at single concentration of inhibitor (3 μM inhibitor (column A), 3 µM): 60%"
–,–,–,"CC(C)(C)OC(=O)NCCCC(=O)C1C(=O)c2ccc(S(=O)(=O)c3ccc4c(c3)C(=O)C(C(=O)CCCNC(=O)OC(C)(C)C)C4=O)cc2C1=O (stereo not drawn) [Example 387, tert-butyl N-[4-(5-{[2-(4-{[(tert-butoxy)carbonyl]amino}butanoyl)-1,3-dioxo-2,3-dihydro-1H-inden-5-yl]sulfonyl}-1,3-dioxo-2,3-dihydro-1H-inden-2-yl)-4-oxobutyl]carbamate]",inhibition at 1 µM (1 μM inhibitor): 16%; inhibition at 3 µM (3 μM inhibitor (column A)): 52%
–,–,–,"COCCOCCN(CC(=O)C1C(=O)c2ccc(C(=O)c3ccc4c(c3)C(=O)C(C(=O)CN(CCOCCOC)C(=O)OC(C)(C)C)C4=O)cc2C1=O)C(=O)OC(C)(C)C (stereo not drawn) [Example 391, tert-butyl N-[2-(5-{2-[2-(11,11-dimethyl-9-oxo-2,5,10-trioxa-8-azadodecan-8-yl)acetyl]-1,3-dioxo-2,3-dihydro-1H-indene-5-carbonyl}-1,3-dioxo-2,3-dihydro-1H-inden-2-yl)-2-oxoethyl]-N-[2-(2-methoxyethoxy)ethyl]carbamate]",inhibition at 1 µM (1 μM inhibitor): 1%; inhibition at 3 µM (3 μM inhibitor (column A)): 6%
88,89,3100,"O=C(c1ccc2c(c1)C(=O)C(C(=O)Cn1cccn1)C2=O)c1ccc2c(c1)C(=O)C(C(=O)Cn1cccn1)C2=O (stereo not drawn) [Example 126, 5-{1,3-dioxo-2-[2-(1H-pyrazol-1-yl)acetyl]-2,3-dihydro-1H-indene-5-carbonyl}-2-[2-(1H-pyrazol-1-yl)acetyl]-2,3-dihydro-1H-indene-1,3-dione]",–
–,–,2300,"CCCCNC(=O)C1C(=O)c2ccc(C(=O)c3ccc4c(c3)C(=O)C(C(=O)NCCCC)C4=O)cc2C1=O (stereo not drawn) [Example 77, N-butyl-5-[2-(butylcarbamoyl)-1,3-dioxo-2,3-dihydro-1H-indene-5-carbonyl]-1,3-dioxo-2,3-dihydro-1H-indene-2-carboxamide]",–

SMILES,inhibition at 5 µM [%],inhibition at 10 µM [%],IC50 [nM],also measured
"CC(C)(C)OC(=O)N1CCC[C@H]1CC(=O)C1C(=O)c2ccc(C(=O)c3ccc4c(c3)C(=O)C(C(=O)C[C@@H]3CCCN3C(=O)OC(C)(C)C)C4=O)cc2C1=O (stereo in doubt) [Example 112, tert-butyl (2S)-2-{2-[5-(2-{2-[(2S)-1-[(tert-butoxy)carbonyl]pyrrolidin-2-yl]acetyl}-1,3-dioxo-2,3-dihydro-1H-indene-5-carbonyl)-1,3-dioxo-2,3-dihydro-1H-inden-2-yl]-2-oxoethyl}pyrrolidine-1-carboxylate]",84,89,1200,–
"CC(C)(C)OC(=O)N[C@@H](Cc1ccccc1)C(=O)C1C(=O)c2ccc(S(=O)(=O)c3ccc4c(c3)C(=O)C(C(=O)[C@H](Cc3ccccc3)NC(=O)OC(C)(C)C)C4=O)cc2C1=O (stereo partly drawn) [Example 158, tert-butyl N-[(2S)-1-[5-({2-[(2S)-2-{[(tert-butoxy)carbonyl]amino}-3-phenylpropanoyl]-1,3-dioxo-2,3-dihydro-1H-inden-5-yl}sulfonyl)-1,3-dioxo-2,3-dihydro-1H-inden-2-yl]-1-oxo-3-phenylpropan-2-yl]carbamate]",100,100,1400,–
"C[C@@H](C(=O)C1C(=O)c2ccc(S(=O)(=O)c3ccc4c(c3)C(=O)C(C(=O)[C@H](C)N(C)C(=O)OC(C)(C)C)C4=O)cc2C1=O)N(C)C(=O)OC(C)(C)C (stereo partly drawn) [Example 156, tert-butyl N-[(2S)-1-[5-({2-[(2S)-2-{[(tert-butoxy)carbonyl](methyl)amino}propanoyl]-1,3-dioxo-2,3-dihydro-1H-inden-5-yl}sulfonyl)-1,3-dioxo-2,3-dihydro-1H-inden-2-yl]-1-oxopropan-2-yl]-N-methylcarbamate]",94,100,6300,–
"CC(C)(C)OC(=O)N1CCC[C@@H]1C(=O)C1C(=O)c2ccc(S(=O)(=O)c3ccc4c(c3)C(=O)C(C(=O)[C@H]3CCCN3C(=O)OC(C)(C)C)C4=O)cc2C1=O (stereo partly drawn) [Example 162, tert-butyl (2R)-2-[5-({2-[(2R)-1-[(tert-butoxy)carbonyl]pyrrolidine-2-carbonyl]-1,3-dioxo-2,3-dihydro-1H-inden-5-yl}sulfonyl)-1,3-dioxo-2,3-dihydro-1H-indene-2-carbonyl]pyrrolidine-1-carboxylate]",86,94,2600,–
"CC(=O)C1C(=O)c2ccc(Oc3ccc4c(c3)C(=O)C(C(C)=O)C4=O)cc2C1=O (stereo not drawn) [Example 9, 5-(2-acetyl-2,3-dihydro-1,3-dioxo-1h-inden-6-yloxy)-2-acetyl-2,3-dihydro-1,3-dioxo-1h-indene]",–,–,52000,–
"O=C(c1ccc2c(c1)C(=O)C(C(=O)CC1CCCC1=O)C2=O)c1ccc2c(c1)C(=O)C(C(=O)CC1CCCC1=O)C2=O (stereo not drawn) [Example 261, 5-{1,3-dioxo-2-[2-(2-oxocyclopentyl)acetyl]-2,3-dihydro-1H-indene-5-carbonyl}-2-[2-(2-oxocyclopentyl)acetyl]-2,3-dihydro-1H-indene-1,3-dione]",–,–,1320,inhibition at 1 µM (1 μM inhibitor): 67%; inhibition at 3 µM (3 μM inhibitor (column A)): 77%
